Test results reported in patent publication US10457709B2, “Antimicrobial peptides, their variants and uses” (priority 2015, dated 2019).
Values after ≈ are worked out from the molar mass of the structure shown. Read-outs that look alike come from different tables or passages of the source. Square brackets hold non-standard residues; d marks the D form. Peptide text beside a SMILES is read from it.

Legend:
[1] = tested on: C. parapsilosis clinical strains; test: MIC, clinical yeast strains; type: cell-based, Candida parapsilosis; set-up: unit: µg/ml
Summary of the method: (§1)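 Broth microdilution in Mueller Hinton broth, inoculum adjusted to 5.0×10^5 cfu/ml, peptides tested at 0.125 to 128 μg/ml, 37° C for 20 to 24 hours. Yeast assays were run in potato dextrose broth. MIC was taken as the lowest concentration with no visible growth.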

[2] = tested on: Escherichia coli clinical strains; type: cell-based; settings: for Minimum inhibitory concentration: microdilution, Muller Hinton broth-cation adjusted, 0.02% BSA, 0.2% acetic acid
Summary of the method: as §1

[3] = tested on: Acinetobacter johnsonii clinical strains; type: cell-based; settings: Acinetobacter johnsonii clinical strain 1; microdilution, Muller Hinton broth-cation adjusted, 0.02% BSA, 0.2% acetic acid
Summary of the method: as §1

[4] = tested on: all the bacteria and yeasts tested; type: cell-based
Summary of the method: as §1

[5] = tested on: Klebsiella pneumoniae clinical strains; type: cell-based; settings: microdilution, Muller Hinton broth-cation adjusted, 0.02% BSA, 0.2% acetic acid
Summary of the method: as §1

[6] = tested on: Pseudomonas aeruginosa clinical strains; type: cell-based; settings: microdilution, Muller Hinton broth-cation adjusted, 0.02% BSA, 0.2% acetic acid
Summary of the method: as §1

[7] = tested on: C. quillermondiae clinical strains; test: MIC, clinical yeast strains; type: cell-based, Candida quillermondiae; set-up: unit: μg/ml; settings: C. quillermondiae clinical yeast strain 1
Summary of the method: as §1

[8] = tested on: Candida albicans clinical strains; test: MIC, clinical yeast strains; type: cell-based; set-up: unit: μg/ml
Summary of the method: as §1

[9] = tested on: C. glabrata clinical strains; test: MIC, clinical yeast strains; type: cell-based, Candida glabrata; set-up: unit: µg/ml
Summary of the method: as §1

[10] = tested on: Proteus mirabilis clinical strains; type: cell-based; set-up: Minimum inhibitory concentration: unit: μg/ml; settings: microdilution, Muller Hinton broth-cation adjusted, 0.02% BSA, 0.2% acetic acid
Summary of the method: as §1

[11] = tested on: Serratia marcescens clinical strains; type: cell-based; set-up: Minimum inhibitory concentration: unit: μg/ml; settings: microdilution, Muller Hinton broth-cation adjusted, 0.02% BSA, 0.2% acetic acid
Summary of the method: as §1

[12] = tested on: Acinetobacter baumannii clinical strains; type: cell-based; set-up: Minimum inhibitory concentration: unit: μg/ml; settings: microdilution, Muller Hinton broth-cation adjusted, 0.02% BSA, 0.2% acetic acid
Summary of the method: as §1

[13] = tested on: Streptococcus pneumoniae clinical strains; type: cell-based; set-up: Minimum inhibitory concentration: unit: μg/ml; settings: microdilution, Muller Hinton broth-cation adjusted, 0.02% BSA, 0.2% acetic acid
Summary of the method: as §1

[14] = tested on: Staphylococcus aureus clinical strains; type: cell-based; set-up: Minimum inhibitory concentration: unit: μg/ml; settings: microdilution, Muller Hinton broth-cation adjusted, 0.02% BSA, 0.2% acetic acid
Summary of the method: as §1

[15] = tested on: Enterobacter cloacae clinical strains; type: cell-based; set-up: Minimum inhibitory concentration: unit: μg/ml; settings: microdilution, Muller Hinton broth-cation adjusted, 0.02% BSA, 0.2% acetic acid
Summary of the method: as §1

CC(C)C[C@@H](NC(=O)[C@H](N)CCCNC(=N)N)C(=O)N[C@H](CCCCN)C(=O)N[C@H](CCCNC(=N)N)C(=O)N[C@H](Cc1c[nH]c2ccccc12)C(=O)N[C@H](CCCNC(=N)N)C(=O)N[C@H](CC(C)C)C(=O)N[C@H](Cc1ccccc1)C(=O)N[C@H](CCCNC(=N)N)C(=O)N[C@H](CCCCN)C(=O)N[C@H](CCCNC(=N)N)C(=O)O [Chain306D] (H-[dR][dL][dK][dR][dW][dR][dL][dF][dR][dK][dR]-OH) gave a Minimum inhibitory concentration ([1]; C. parapsilosis clinical yeast strain 1) of 8, a Minimum inhibitory concentration ([1]; C. parapsilosis clinical yeast strain 2) of 16 and a Minimum inhibitory concentration ([1]; C. parapsilosis clinical yeast strain 3) of 16. For the same compound, the Minimum inhibitory concentration ([1]; C. parapsilosis clinical yeast strain 4) was 4, the Minimum inhibitory concentration ([2]; Escherichia coli clinical strain 1) was 1 and the Minimum inhibitory concentration ([2]; Escherichia coli clinical strain 2) was 2. The Minimum inhibitory concentration ([2]; Escherichia coli clinical strain 3) was 2, the Minimum inhibitory concentration ([2]; Escherichia coli clinical strain 4) was 2 and the Minimum inhibitory concentration ([2]; Escherichia coli clinical strain 5) was 2. For the same compound, the “MIC against E. coli” value ([2]; clinical strains) was 1 µg/mL (≈ 0.619 µM), the Minimum inhibitory concentration [3] was 16 and the “MIC against the rest of the bacterial strains” value [4] was > 32 µg/mL. The Minimum inhibitory concentration ([5]; Klebsiella pneumoniae clinical strain 1) was 128, the Minimum inhibitory concentration ([5]; Klebsiella pneumoniae clinical strain 2) was >128 and the Minimum inhibitory concentration ([5]; Klebsiella pneumoniae clinical strain 3) was >128. It also gave a Minimum inhibitory concentration ([5]; Klebsiella pneumoniae clinical strain 4) of 64, a Minimum inhibitory concentration ([5]; Klebsiella pneumoniae clinical strain 5) of 64 and a Minimum inhibitory concentration ([6]; Pseudomonas aeruginosa clinical strain 1) of 128. For the same compound, the Minimum inhibitory concentration ([6]; Pseudomonas aeruginosa clinical strain 2) was >128, the Minimum inhibitory concentration ([6]; Pseudomonas aeruginosa clinical strain 3) was 128 and the Minimum inhibitory concentration ([6]; Pseudomonas aeruginosa clinical strain 4) was >128. It also gave a Minimum inhibitory concentration ([6]; Pseudomonas aeruginosa clinical strain 5) of 128, a Minimum inhibitory concentration [7] of 4 and a Minimum inhibitory concentration ([8]; Candida albicans clinical yeast strain 1) of 16. It also gave a Minimum inhibitory concentration ([8]; Candida albicans clinical yeast strain 2) of 8, a Minimum inhibitory concentration ([8]; Candida albicans clinical yeast strain 3) of 8 and a Minimum inhibitory concentration ([8]; Candida albicans clinical yeast strain 4) of 16. The Minimum inhibitory concentration ([8]; Candida albicans clinical yeast strain 5) was 16, the Minimum inhibitory concentration ([9]; C. glabrata clinical yeast strain 1) was 8 and the Minimum inhibitory concentration ([9]; C. glabrata clinical yeast strain 2) was 8. The Minimum inhibitory concentration ([9]; C. glabrata clinical yeast strain 3) was 16, the Minimum inhibitory concentration ([9]; C. glabrata clinical yeast strain 4) was 32 and the Minimum inhibitory concentration ([10]; Proteus mirabilis clinical strain 1) was >128. The Minimum inhibitory concentration ([10]; Proteus mirabilis clinical strain 2) was >128, the Minimum inhibitory concentration ([10]; Proteus mirabilis clinical strain 3) was >128 and the Minimum inhibitory concentration ([10]; Proteus mirabilis clinical strain 4) was >128. For the same compound, the Minimum inhibitory concentration ([10]; Proteus mirabilis clinical strain 5) was >128, the Minimum inhibitory concentration ([11]; Serratia marcescens clinical strain 1) was >128 and the Minimum inhibitory concentration ([11]; Serratia marcescens clinical strain 2) was >128. The Minimum inhibitory concentration ([11]; Serratia marcescens clinical strain 3) was >128, the Minimum inhibitory concentration ([11]; Serratia marcescens clinical strain 4) was >128 and the Minimum inhibitory concentration ([11]; Serratia marcescens clinical strain 5) was >128. The Minimum inhibitory concentration ([12]; Acinetobacter baumannii clinical strain 1) was 16, the Minimum inhibitory concentration ([12]; Acinetobacter baumannii clinical strain 2) was 32 and the Minimum inhibitory concentration ([12]; Acinetobacter baumannii clinical strain 3) was 16. For the same compound, the Minimum inhibitory concentration ([12]; Acinetobacter baumannii clinical strain 4) was 16, the Minimum inhibitory concentration ([12]; Acinetobacter baumannii clinical strain 5) was 8 and the Minimum inhibitory concentration ([13]; Streptococcus pneumoniae clinical strain 1) was 64. It also gave a Minimum inhibitory concentration ([13]; Streptococcus pneumoniae clinical strain 2) of 64, a Minimum inhibitory concentration ([13]; Streptococcus pneumoniae clinical strain 3) of 64 and a Minimum inhibitory concentration ([13]; Streptococcus pneumoniae clinical strain 4) of 128. It also gave a Minimum inhibitory concentration ([13]; Streptococcus pneumoniae clinical strain 5) of 64, a Minimum inhibitory concentration ([14]; Staphylococcus aureus clinical strain 1) of 16 and a Minimum inhibitory concentration ([14]; Staphylococcus aureus clinical strain 2) of 32. The Minimum inhibitory concentration ([14]; Staphylococcus aureus clinical strain 3) was 32, the Minimum inhibitory concentration ([14]; Staphylococcus aureus clinical strain 4) was 16 and the Minimum inhibitory concentration ([14]; Staphylococcus aureus clinical strain 5) was 8. It also gave a Minimum inhibitory concentration ([15]; Enterobacter cloacae clinical strain 1) of 64, a Minimum inhibitory concentration ([15]; Enterobacter cloacae clinical strain 2) of 64 and a Minimum inhibitory concentration ([15]; Enterobacter cloacae clinical strain 3) of 32. It also gave a Minimum inhibitory concentration ([15]; Enterobacter cloacae clinical strain 4) of 16 and a Minimum inhibitory concentration ([15]; Enterobacter cloacae clinical strain 5) of 16.
